The source of these data is ChEMBL document CHEMBL5465560, “Selectivity Literature for EUbOPEN Chemogenomic Library” (2024).

Test [1] concerns the target Serine/threonine-protein kinase 26 (Homo sapiens, UniProt Q9P289). The settings on record: at 1 µM.
In test [2] the target is T1, Testis-specific serine/threonine-protein kinase 2 (Homo sapiens) (UniProt Q96PF2).
T1 sequence (whole entry): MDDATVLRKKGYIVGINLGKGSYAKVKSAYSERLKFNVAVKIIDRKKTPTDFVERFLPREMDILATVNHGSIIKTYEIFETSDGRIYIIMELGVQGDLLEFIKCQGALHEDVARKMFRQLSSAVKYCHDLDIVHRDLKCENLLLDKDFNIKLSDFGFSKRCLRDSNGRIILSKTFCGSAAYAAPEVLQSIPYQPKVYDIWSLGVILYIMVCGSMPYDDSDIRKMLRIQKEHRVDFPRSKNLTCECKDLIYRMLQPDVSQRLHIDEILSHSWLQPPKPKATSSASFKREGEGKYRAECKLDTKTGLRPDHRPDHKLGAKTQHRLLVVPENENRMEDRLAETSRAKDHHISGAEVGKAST
Put plainly: Selectivity interaction (ProQinase) EUB0000171b TSSK2.

In test [3] the target is T2, Serine/threonine-protein kinase RIO1 (Homo sapiens) (UniProt Q9BRS2).
T2 sequence (whole entry): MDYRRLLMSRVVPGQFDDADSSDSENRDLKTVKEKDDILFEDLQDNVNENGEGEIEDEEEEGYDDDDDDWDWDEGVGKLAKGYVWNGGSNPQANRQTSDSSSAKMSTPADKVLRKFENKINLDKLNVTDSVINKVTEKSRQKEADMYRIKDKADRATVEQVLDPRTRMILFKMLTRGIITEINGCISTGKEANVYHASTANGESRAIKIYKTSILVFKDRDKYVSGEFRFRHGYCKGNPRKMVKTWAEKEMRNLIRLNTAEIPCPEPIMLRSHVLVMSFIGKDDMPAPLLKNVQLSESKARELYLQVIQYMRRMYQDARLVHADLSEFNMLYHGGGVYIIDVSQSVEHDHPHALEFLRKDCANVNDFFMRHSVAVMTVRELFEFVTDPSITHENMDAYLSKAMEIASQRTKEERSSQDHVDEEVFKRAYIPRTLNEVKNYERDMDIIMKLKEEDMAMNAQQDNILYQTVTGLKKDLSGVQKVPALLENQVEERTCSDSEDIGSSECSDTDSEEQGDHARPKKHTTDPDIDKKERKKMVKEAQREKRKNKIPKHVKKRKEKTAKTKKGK
Put plainly: Selectivity interaction (KINOMEscan (DiscoverX)) EUB0001868a RIOK1. The settings on record: at 1 µM.

Test [4] has as its target T3, Myosin-IIIb (Homo sapiens) (UniProt Q8WXR4).
T3 sequence (whole entry): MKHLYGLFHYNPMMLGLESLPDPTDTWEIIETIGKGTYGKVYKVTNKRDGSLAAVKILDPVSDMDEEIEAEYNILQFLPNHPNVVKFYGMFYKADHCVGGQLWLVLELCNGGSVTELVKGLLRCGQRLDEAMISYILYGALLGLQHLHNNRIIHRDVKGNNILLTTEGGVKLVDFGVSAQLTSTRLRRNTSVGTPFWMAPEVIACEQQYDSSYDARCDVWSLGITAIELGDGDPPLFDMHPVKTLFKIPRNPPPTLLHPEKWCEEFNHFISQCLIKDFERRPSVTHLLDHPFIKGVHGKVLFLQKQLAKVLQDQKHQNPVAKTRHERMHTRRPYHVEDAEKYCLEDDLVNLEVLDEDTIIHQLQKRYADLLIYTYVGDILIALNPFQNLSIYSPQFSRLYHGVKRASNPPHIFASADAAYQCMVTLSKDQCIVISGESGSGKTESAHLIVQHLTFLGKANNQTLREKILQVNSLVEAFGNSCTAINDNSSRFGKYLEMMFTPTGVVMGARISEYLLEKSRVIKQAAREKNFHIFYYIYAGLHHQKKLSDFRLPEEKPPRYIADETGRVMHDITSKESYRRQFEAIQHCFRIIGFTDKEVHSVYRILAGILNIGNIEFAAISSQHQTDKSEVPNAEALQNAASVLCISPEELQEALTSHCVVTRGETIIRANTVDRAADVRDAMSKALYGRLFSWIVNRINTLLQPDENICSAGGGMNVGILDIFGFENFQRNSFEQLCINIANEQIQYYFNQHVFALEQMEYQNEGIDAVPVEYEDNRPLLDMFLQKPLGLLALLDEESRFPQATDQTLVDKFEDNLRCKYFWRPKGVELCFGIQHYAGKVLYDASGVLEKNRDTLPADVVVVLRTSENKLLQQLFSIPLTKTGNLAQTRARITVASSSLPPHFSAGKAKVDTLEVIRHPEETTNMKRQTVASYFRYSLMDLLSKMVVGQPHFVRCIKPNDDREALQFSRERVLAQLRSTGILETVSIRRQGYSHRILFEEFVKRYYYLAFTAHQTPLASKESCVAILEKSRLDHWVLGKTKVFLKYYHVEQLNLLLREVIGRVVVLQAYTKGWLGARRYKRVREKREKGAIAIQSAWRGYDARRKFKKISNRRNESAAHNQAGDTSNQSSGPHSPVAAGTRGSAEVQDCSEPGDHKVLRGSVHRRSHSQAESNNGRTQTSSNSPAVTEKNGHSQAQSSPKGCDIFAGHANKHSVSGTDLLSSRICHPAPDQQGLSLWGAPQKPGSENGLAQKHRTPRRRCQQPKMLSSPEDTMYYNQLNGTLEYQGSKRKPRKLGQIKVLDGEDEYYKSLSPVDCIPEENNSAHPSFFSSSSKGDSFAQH
Put plainly: Selectivity interaction (KinomeScan (DiscoverX)) EUB0000092b MYO3B. The note with it: at 10 µM.

For test [5], the target named is T4, Dual specificity mitogen-activated protein kinase kinase 4 (Homo sapiens) (UniProt P45985).
T4 sequence (whole entry): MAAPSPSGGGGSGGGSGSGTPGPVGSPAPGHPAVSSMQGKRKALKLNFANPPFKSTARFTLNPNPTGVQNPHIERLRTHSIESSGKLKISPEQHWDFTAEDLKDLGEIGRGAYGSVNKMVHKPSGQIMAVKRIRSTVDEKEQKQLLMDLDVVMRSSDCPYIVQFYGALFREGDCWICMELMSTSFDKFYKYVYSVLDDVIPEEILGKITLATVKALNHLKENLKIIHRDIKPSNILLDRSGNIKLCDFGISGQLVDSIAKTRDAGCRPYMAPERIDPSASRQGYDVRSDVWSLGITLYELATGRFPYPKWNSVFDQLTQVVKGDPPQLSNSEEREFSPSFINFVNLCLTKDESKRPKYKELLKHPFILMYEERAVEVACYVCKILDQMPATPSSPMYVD
Put plainly: Selectivity interaction (KinomeScan (DiscoverX)) EUB0000092b MAP2K4. The note with it: at 10 µM.

Chain of Serine/threonine-protein kinase 26 (Q9P289 2-416 limits assumed): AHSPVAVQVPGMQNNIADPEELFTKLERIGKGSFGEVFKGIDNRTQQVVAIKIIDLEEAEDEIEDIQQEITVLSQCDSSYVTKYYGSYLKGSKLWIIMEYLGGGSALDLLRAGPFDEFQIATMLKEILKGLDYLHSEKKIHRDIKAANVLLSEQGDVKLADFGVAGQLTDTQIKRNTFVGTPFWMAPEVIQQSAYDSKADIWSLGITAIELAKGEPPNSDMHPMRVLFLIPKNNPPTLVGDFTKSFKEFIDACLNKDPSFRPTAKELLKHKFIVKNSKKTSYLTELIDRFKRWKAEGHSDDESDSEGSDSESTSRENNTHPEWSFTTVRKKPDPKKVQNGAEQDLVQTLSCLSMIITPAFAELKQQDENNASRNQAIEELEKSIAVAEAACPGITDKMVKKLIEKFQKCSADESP

As to `N#Cc1cccc(-c2c[nH]c3ncnc(N4CCOCC4)c23)c1`, in test [1], the % of control came to 7%.
For the compound `C=CC(=O)Nc1cccc(C(=O)Nc2ccc(Nc3cc(-c4[nH]c(SC)nc4C)ccn3)cc2)c1`, the % of control turned out to be 90% in test [2] (at 1 µM) and 97% in test [2] (at 5 µM).
Compound `Cc1cc(-c2ccnc(Nc3cnn(C)c3)n2)ccc1CNC(=O)N1CC(OC(C)C)C1` had a % of control in test [3] of 17%.
Regarding `CCC(=O)N1CCN(c2ccc(-n3c(=O)ccc4cnc5ccc(-c6cnc7ccccc7c6)cc5c43)cc2C(F)(F)F)CC1`, the % of control in test [4] stood at 100%; in test [5], 30%.
